Measured values as given in paper PMC5915530, “Immunosilencing peptides by stereochemical inversion and sequence reversal: retro-D-peptides” (Scientific Reports, 2018).
Non-standard residues stand in square brackets, D forms with d. Residues, ends and D or L forms follow the SMILES beside them.

Tests used:
[1] = demonstrated earlier by the authors' laboratory; ref 21 (printed for retro-D-THR); cited from earlier work
Text: (§1) We have applied this previously described strategy to a family of peptide BBB shuttles (H2N-HAIYPRH-CONH2 and H2N-THRPPMWSPVWP-CONH2[14], namely HAI and THR peptides, respectively). BBB shuttles are molecular entities of diverse origin, e.g. synthetic or natural peptides, which have the capacity to cross the blood-brain barrier (BBB) and, when covalently conjugated to drugs unable to cross the BBB unaided, can deliver them into the central nervous system (CNS)[15]. Those that cross through receptor-mediated transcytosis are also included in the term ‘molecular Trojan horses’[16],[17]. Although ...

[2] = Protease resistance; type: in vitro ADME; conditions: as stated in abstract
Description: (§2) Data were processed using GraphPad Prism 6.0 software. All results are presented as mean + SEM. Data from human serum stability assays were analyzed as non-linear one-phase exponential decay model for L-peptides and as standard linear model with zero slope for D-peptides. Deviations from a value of 100 at each dilution point were assessed using a linear model, in which group and interaction were included as covariates. In immune response studies, each dilution point (in ELISAs) was analyzed by a Mann-Whitney test to assess differences between S0 with S1 or S2. In both cases, 5% was set as a threshold for statistical significance.

[3] = system: BALB/c mice; assay: Mouse immunization with unconjugated peptides, titration of peptide-specific antibodies in serum by ELISA; type: in vivo; conditions: seven i.p. doses of 50 μg, BALB/c mice (four per group), CFA first dose, IFA boosters, PBS last, ELISA on peptide-BSA conjugate, serum diluted from 1:100, anti-Mouse IgG-HRP, read at 450 nm, Fig. 3a, b
Text: To date, several studies have used D-peptides as tools for vaccine development. In these cases the peptides have been conjugated to large supramolecular entities, e.g. KLH and small unilamelar liposomes containing monophosphoryl lipid A[23],[24]. Nevertheless, the use of retro-D-peptides as therapeutics was controversial twenty years ago[25],[26]. Thus, to shed light on the immunogenicity of D-peptides and add further value to these compounds, we evaluated the immunological responses activated by retro-D-THR and retro-D-HAI peptides and compared them to that of their parent peptides. For this purpose, peptides (not conjugated) were i.p. administered to mice, and antibody titration was used as parameter to evaluate immunological (humoral) response by ELISA.
Four groups of four BALB/c mice were treated with either one of the parent peptides or their retro-D-version. Each mouse received seven doses i.p. of 50 μg of peptide. Complete Freund’s[49] adjuvant (CFA) was administered in the first dose, incomplete Freund’s adjuvant (IFA) in the subsequent five booster injections, and PBS in the last one. Bleedings for the titration of specific antibody production were performed before the first dose (time zero bleeding) and five days after the fourth and last dose (Supplementary Scheme 1). The peptide-specific humoral response was quantified by ELISA. MaxiSorp plates (Nunc) were treated with 0.1 mL of the corresponding peptide-BSA conjugate (1 μg) per well in carbonate buffer, overnight at 4 °C (Supplementary Fig. 6b). Afterwards, plates were blocked with 0.2 mL PBS-Tween 20 (T20) containing 2% of milk powder for 2 h a 37 °C. Each sample serum was consecutively diluted 1/2 (starting by dilution 1:100) in PBS-T20 and incubated for 1 h at 37 °C. Incubation with a secondary antibody (dil. 1/5,000) anti-Mouse IgG-HRP (ref. R1253HRP; batch 26922; Acris) was left for 1 h at 37 °C. Washes (x3) with PBST (300 μl/well) were applied after each antibody incubation. Finally, TMB (100 μl/well) was added and left for 30 min, when the stop solution (100 μl, HClaq 1 N) blocked the colorimetric reaction. Plates were read at 450 nm (Fig. 3a–c). […]
as §2, with “All results are presented as mean + SEM.” left out, “In both cases, 5% was set as a threshold for statistical significance.” left out

[4] = system: blood-brain barrier (BBB); conditions: parent versions, in several studies; ref not given; cited from earlier work
Text: as §1

protease resistance [2] | immunogenicity (peptide-specific humoral response, antibody titration) [3] | Compound | protease-resistance [1] | immunogenicity (peptide-specific humoral response, antibody titration) ([3]; listed as H2N-hrpyiah-CONH2) | immunogenicity (peptide-specific humoral response, antibody titration) ([3]; listed as H2N-pwvpswmpprht-CONH2) | BBB permeability [4]
protease-resistant | not immunogenic per se | CC[C@@H](C)[C@@H](NC(=O)[C@@H](Cc1ccc(O)cc1)NC(=O)[C@H]1CCCN1C(=O)[C@@H](CCCNC(=N)N)NC(=O)[C@H](N)Cc1c[nH]cn1)C(=O)N[C@H](C)C(=O)N[C@H](Cc1c[nH]cn1)C(N)=O [retro-D-HAI] | protease-resistance | much less immunogenic than the parent peptide | – | –
protease-resistant | not immunogenic per se | CSCC[C@@H](NC(=O)[C@@H](Cc1c[nH]c2ccccc12)NC(=O)[C@@H](CO)NC(=O)[C@H]1CCCN1C(=O)[C@H](NC(=O)[C@@H](Cc1c[nH]c2ccccc12)NC(=O)[C@H]1CCCN1)C(C)C)C(=O)N1CCC[C@@H]1C(=O)N1CCC[C@@H]1C(=O)N[C@H](CCCNC(=N)N)C(=O)N[C@H](Cc1c[nH]cn1)C(=O)N[C@@H](C(N)=O)[C@H](C)O [retro-D-THR] (H-[dP][dW][dV][dP][dS][dW][dM][dP][dP][dR][dH][dT]-NH2) | protease-resistance | – | much less immunogenic than the parent peptide | –
– | – | H2N-HAIYPRH-CONH2 [parent L-peptide BBB shuttle, H2N-HAIYPRH-CONH2] | – | – | – | efficient BBB permeability
– | – | H2N-THRPPMWSPVWP-CONH2 (H-THRPPMWSPVWP-NH2) [parent L-peptide BBB shuttle, H2N-…-CONH2] | – | – | – | efficient BBB permeability
